From ChEMBL document CHEMBL5625159, “Challenges for the development of mutant isocitrate dehydrogenases 1 inhibitors to treat glioma” (Eur J Med Chem, 2023)

Assays:
[1] = biological target: T1, Isocitrate dehydrogenase [NADP] cytoplasmic (Homo sapiens, UniProt O75874, R132H); experiment: Inhibition of human IDH1 R132H mutant
[2] = system: HT-1080; experiment: Antiproliferative activity against human HT-1080 cells harboring IDH1 […] mutant measured after 72 hrs by MTT assay; type: functional, cell-based; conditions: HT-1080, 72 h
[3] = system: U-87 MG; experiment: Antiproliferative activity against human U-87 MG cells harboring IDH1 R132H mutant measured after 72 hrs by MTT assay; type: functional, cell-based, U-87MG ATCC
[4] = biological target: T1, Isocitrate dehydrogenase [NADP] cytoplasmic; experiment: Inhibition of full length N-terminal GST-tagged human IDH1 R132H mutant expressed in Escherichia coli in presence of alpha-KG by fluorescence based biochemical assay
[5] = Inhibition of IDH2 R172Q mutant (unknown origin); parameters: species or system Homo sapiens
[6] = biological target: T2, Isocitrate dehydrogenase [NADP] cytoplasmic (Homo sapiens, UniProt O75874, R132C); experiment: Inhibition of C-terminal Hexahistidine-tagged human recombinant IDH1 R132C mutant expressed in Escherichia coli BL21 (DE3) cells assessed as NADPH consumption in presence of alpha KG incubated for 1 hr by MST assay
[7] = biological target: T1, Isocitrate dehydrogenase [NADP] cytoplasmic; experiment: Inhibition of human IDH1 R132H mutant heterodimer in presence of alpha-ketoglutarate and NADPH by fluorescence based biochemical assay
[8] = biological target: T2, Isocitrate dehydrogenase [NADP] cytoplasmic; experiment: Inhibition of IDH1 R132C mutant (unknown origin) expressed in Escherichia coli BL21 (DE3) cells
[9] = biological target: T1, Isocitrate dehydrogenase [NADP] cytoplasmic; experiment: Inhibition of N-terminal His-tagged human recombinant IDH1 R132H mutant (1 to 414) expressed in Sf9 incubated for 60 mins by size-exclusion chromatography analysis
[10] = biological target: T2, Isocitrate dehydrogenase [NADP] cytoplasmic; experiment: Inhibition of human […] IDH1 R132C mutant expressed in Escherichia coli BL21 (DE3) cells incubated for 60 mins by fluorescence based analysis
[11] = biological target: T1, Isocitrate dehydrogenase [NADP] cytoplasmic; experiment: Inhibition of human […] IDH1 R132H mutant expressed in Escherichia coli BL21 (DE3) cells incubated for 60 mins by fluorescence based analysis

T2 sequence (O75874 2-414 R132C limits assumed): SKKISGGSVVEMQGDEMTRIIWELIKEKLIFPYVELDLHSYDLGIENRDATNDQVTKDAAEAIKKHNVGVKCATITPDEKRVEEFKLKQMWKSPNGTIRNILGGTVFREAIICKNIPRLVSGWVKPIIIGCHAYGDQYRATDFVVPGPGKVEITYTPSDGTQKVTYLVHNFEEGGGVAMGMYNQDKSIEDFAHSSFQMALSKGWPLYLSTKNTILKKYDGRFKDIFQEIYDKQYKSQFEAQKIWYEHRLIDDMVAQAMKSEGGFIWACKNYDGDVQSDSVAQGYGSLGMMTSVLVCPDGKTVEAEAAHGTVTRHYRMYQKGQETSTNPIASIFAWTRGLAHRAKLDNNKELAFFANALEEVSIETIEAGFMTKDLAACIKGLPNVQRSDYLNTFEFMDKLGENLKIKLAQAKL
T1 sequence (O75874 2-414 R132H limits assumed): as the sequence (O75874 2-414 R132C limits assumed) above, with C131H counted along it

C[C@H](Nc1nccc(N2CCCC2=O)n1)c1cc(-c2ccc(Cl)cc2)no1
IC50 [1]: 0.271 µM

C=CC(=O)N1CCN(Cc2ccc([C@H](C)Nc3nccc(N4C(=O)OC[C@@H]4[C@@H](C)O)n3)cc2)CC1
IC50 [2]: 0.211 µM
IC50 [3]: 0.0151 µM

Cn1cc(C2=C(c3c[nH]c4cc(Cl)ccc34)C(=O)NC2=O)c2cccnc21
IC50 [4]: 19.4 µM

C=CC(=O)N1CCN(Cc2ccc([C@H](C)Nc3ncc4c(n3)N(C)C(=O)OC4)cc2)CC1
IC50 [2]: 2.08 µM
IC50 [3]: 0.0449 µM
IC50 [5]: > 100 µM

C[C@H](Nc1nccc(N2CC[C@H](C)C2=O)n1)c1cc(-c2ccc(Cl)cc2)no1
IC50 [1]: 0.358 µM

C=CC(=O)N1CCN(Cc2ccc([C@H](C)Nc3ncc4c(n3)N(C(C)C)C(=O)OC4)cc2)CC1
IC50 [2]: 0.00939 µM
IC50 [3]: 0.0026 µM
IC50 [5]: 41.8 µM

CCOC(=O)[C@@H]1CCN(c2ccnc(N[C@@H](C)c3nc(-c4ccc(Cl)cc4)no3)n2)C1=O
IC50 [1]: > 50 µM

COc1ccc(C(=O)[C@@H](Cn2cncn2)[C@H](Sc2ccccc2)c2ccccc2)cc1
IC50 [6]: 20.8 µM

O=C1c2ccccc2C(=O)C2C1C(=O)N(CCCn1cnnc1)[C@H]2c1ccc(F)cc1 (stereo partly specified)
IC50 [6]: 8.86 µM

CC1CC(n2c(Nc3ccc(C(C)C)cc3)nc3cc(C(=O)O)ccc32)CC(C)(C)C1 (stereo unspecified)
IC50 [7]: 0.01 µM

C=CC(=O)N1CCN(Cc2ccc([C@H](C)Nc3ncc(F)c(N4C(=O)OCC4(C)C)n3)cc2)CC1
IC50 [2]: 0.0696 µM
IC50 [3]: 0.0186 µM

C[C@H](Nc1nccc(N2CCCC2=O)n1)c1ccc(Oc2ccccc2)cc1
IC50 [1]: 0.0241 µM

C[C@H](Nc1nccc(N2CCCC2=O)n1)c1nc(-c2ccc(Cl)cc2)no1
IC50 [1]: 0.413 µM

CC1CC(n2c(Nc3ccc(COC(F)(F)F)cc3)nc3cc(OCC(=O)Nc4ccccc4Cl)ccc32)CC(C)(C)C1 (stereo unspecified)
IC50 [7]: > 10 µM

C=CC(=O)N1CC(OCc2ccc([C@H](C)Nc3ncc4c(n3)N(CC(C)C)C(=O)OC4)cc2)C1
IC50 [3]: 1.28 µM
IC50 [5]: 96.3 µM

O=C(NCc1ccc(C(F)(F)F)cc1)c1nnn(-c2ccccc2Cl)c1-c1cccnc1
IC50 [6]: 28.3 µM

C=CC(=O)N1CCN(C(CC)c2ccc([C@H](C)Nc3nccc(N4CCOC4=O)n3)cc2)CC1 (stereo partly specified)
IC50 [2]: 0.0118 µM
IC50 [8]: 0.568 µM
IC50 [3]: 0.0022 µM

FC(F)(F)c1cccc(-c2nc(NCC3CC3)nc(NCC3CC3)n2)n1
IC50 [9]: 0.083 µM

COC(=O)c1ccc2c(c1)nc(Nc1ccc(C(C)C)cc1)n2C1CC(C)CC(C)(C)C1 (stereo unspecified)
IC50 [7]: 0.18 µM

COC(C)(C)c1onc(-c2c(Cl)cc(Cl)cc2Cl)c1C(=O)n1ccc2c(/C=C/C(=O)O)cccc21
IC50 [10]: 0.094 µM
IC50 [11]: 0.006 µM

C[C@H](Nc1nccc(N2CCC(N)C2=O)n1)c1nc(-c2ccc(Cl)cc2)cs1 (stereo partly specified)
IC50 [1]: 1.68 µM

CC1CC(n2c(Nc3ccc(C(C)C)cc3)nc3cc(CCC(=O)O)ccc32)CC(C)(C)C1 (stereo unspecified)
IC50 [7]: 20 µM

C[C@H](Nc1nccc(N2CCCC2=O)n1)c1nc(-c2ccc(Cl)cc2)cs1
IC50 [1]: 0.338 µM

CC(C)n1nc(C2=C(c3cn(CCCn4ccnc4)c4cc(Cl)ccc34)C(=O)NC2=O)c2ccccc21
IC50 [4]: 1.54 µM

C=CC(=O)N1CCC(c2onc(-c3c(Cl)cccc3Cl)c2C(=O)n2ccc3c(/C=C/C(=O)O)cccc32)CC1
IC50 [10]: 0.00044 µM
IC50 [11]: 0.000349 µM

CC(C)c1onc(-c2c(Cl)cccc2Cl)c1C(=O)c1cn(C)c2c(/C=C/C(=O)O)cccc12
IC50 [10]: 0.13 µM

C=CC(=O)N1CCC(N(C)Cc2ccc([C@H](C)Nc3ncc4c(n3)N(CC)C(=O)OC4)cc2)CC1
IC50 [2]: 1.2 µM
IC50 [3]: 0.0135 µM
IC50 [5]: > 100 µM

Cc1cc(-c2ccc([C@H](C)Nc3nccc(N4C(=O)OC[C@@H]4C(C)C)n3)cc2)ccc1F
IC50 [2]: 0.428 µM
IC50 [3]: 0.68 µM

FC1(F)CCC(Nc2nc(NC3CCC(F)(F)CC3)nc(-c3cccc(C(F)(F)F)n3)n2)CC1
IC50 [9]: 0.027 µM

CSc1nn(-c2ccccc2C)c(-c2ccc3c(c2)OCCO3)c1-n1ccnc1
IC50 [6]: 11 µM

CC(C)(F)c1onc(-c2c(Cl)cccc2Cl)c1C(=O)n1cc2c3c(cccc31)/C(=C/C(=O)O)CC2
IC50 [10]: 0.148 µM
IC50 [11]: 0.018 µM
